Measured values taken from a polymer gas permeability compilation.

| SMILES | CH4 permeability [Barrer] | CO2 permeability [Barrer] | H2 permeability [Barrer] | N2 permeability [Barrer] | O2 permeability [Barrer] |
| --- | --- | --- | --- | --- | --- |
| *C(=C(*)c1ccc2c(c1)C(C)(C)CCC2(C)C)c1ccccc1 (repeat unit) | 6600 | 11400 | 7700 | 2700 | 3900 |
| *C(=C(*)c1ccc2c(c1)C(C)(C)c1ccccc1-2)c1cc(F)cc(F)c1 (repeat unit) | 4200 | 9200 | 5000 | 1700 | 2700 |
| *C(=C(*)c1ccc2c(c1)C(C)(C)c1ccccc1-2)c1ccc(Br)cc1 (repeat unit) | 9300 | 17000 | 8700 | 3500 | 5000 |
| *C(=C(*)c1ccc2c(c1)C(C)(C)c1ccccc1-2)c1ccc(C(C)(C)C)cc1 (repeat unit) | 6600 | 11000 | 6300 | 2500 | 3500 |
| *C(=C(*)c1ccc2c(c1)C(C)(C)c1ccccc1-2)c1ccc(F)cc1 (repeat unit) | 11000 | 21000 | 11000 | 4700 | 6200 |
| *C(=C(*)c1ccc2c(c1)C(C)(C)c1ccccc1-2)c1ccc([Si](C)(C)C)cc1 (repeat unit) | 525 | 1900 | 1040 | 200 | 455 |
| *c1cc2c(cc1O)C1(CC2(C)C)CC(C)(C)c2cc(N3C(=O)C4C5C=CC(C6C(=O)N(*)C(=O)C56)C4C3=O)c(O)cc21 (repeat unit) | 4.6 | 130 | 206 | 5.5 | 23 |
| *c1ccc(*)c(C(=O)c2ccccc2)c1 (repeat unit) | 0.36 | 14.2 | 27.4 | 0.4 | 2.99 |
| *c1ccc(-c2cc(C)c(-c3ccc(*)c(C)c3)cc2C)cc1C (repeat unit) | 1.1 | – | 51 | 1.6 | 8.6 |
| *c1ccc(-c2cc(C)c(-c3ccc(*)cc3C)cc2C)c(C)c1 (repeat unit) | 0.88 | 32 | 72 | 1.4 | 7.2 |
| *c1ccc(-c2ccc(-n3c(=O)c4cc5oc6cc7c(cc6oc5cc4c3=O)C3(CC(C)(C)c4cc5oc6cc8c(=O)n(*)c(=O)c8cc6oc5cc43)CC7(C)C)cc2C(F)(F)F)c(C(F)(F)F)c1 (repeat unit) | 20 | 420 | 300 | 16 | 64 |
| *c1ccc(-c2ccc(C(*)(c3ccccc3)C(F)(F)F)cc2)cc1 (repeat unit) | 10 | 166 | 114 | 6.6 | 25 |
| *c1ccc(-c2ccc(Oc3ccc(C4(c5ccc(Oc6ccc(-c7ccc(N8C(=O)c9ccc(C(c%10ccc%11c(c%10)C(=O)N(*)C%11=O)(C(F)(F)F)C(F)(F)F)cc9C8=O)cc7)cc6C(F)(F)F)cc5)c5ccccc5C(=O)N4c4ccccc4)cc3)c(C(F)(F)F)c2)cc1 (repeat unit) | 1.01 | 53.9 | – | 1.71 | 10.2 |
| *c1ccc(-c2ccc(Oc3ccc4c(c3)C3(CC4(C)C)CC(C)(C)c4ccc(Oc5ccc(-c6ccc(N7C(=O)c8ccc(Oc9ccc(C(C)(C)c%10ccc(Oc%11ccc%12c(c%11)C(=O)N(*)C%12=O)cc%10)cc9)cc8C7=O)cc6)cc5C(F)(F)F)cc43)c(C(F)(F)F)c2)cc1 (repeat unit) | 0.35 | 23.9 | – | 1.02 | 9.92 |
| *c1ccc(C(C)(C)c2ccc(-n3c(=O)c4cc5c(=O)n(*)c(=O)c5cc4c3=O)cc2)cc1 (repeat unit) | 0.901 | 26.9 | 17 | 1.5 | 7.1 |
| *c1ccc(C(c2ccc(-c3nc4cc(C(c5ccc6oc(*)nc6c5)(C(F)(F)F)C(F)(F)F)ccc4o3)cc2)(C(F)(F)F)C(F)(F)F)cc1 (repeat unit) | 176 | 4540 | 3900 | 300 | 1150 |
| *c1ccc(C)c(-c2cc(C)c(-c3cc(*)ccc3C)cc2C)c1 (repeat unit) | 1.9 | 62 | 100 | 2.4 | 12 |
| *c1ccc(C2(c3ccc(*)cc3)OC(=O)c3ccccc32)cc1 (repeat unit) | 2.88 | 72 | 74 | 2.39 | 11 |
| *c1ccc(Oc2cc3c(cc2C)OC2(CC3(C)C)CC(C)(C)c3cc(Oc4ccc(*)cc4)c(C)cc3O2)cc1 (repeat unit) | 0.77 | 29.3 | – | 1.33 | 6.17 |

Now from value to compound:

| CH4 permeability [Barrer] | CO2 permeability [Barrer] | H2 permeability [Barrer] | N2 permeability [Barrer] | O2 permeability [Barrer] | SMILES |
| --- | --- | --- | --- | --- | --- |
| 0.00041 | 0.0313 | – | 0.001 | 0.0096 | *c1ccc(-c2ccc(N3C(=O)c4ccc(-c5ccc6c(c5)C(=O)N(*)C6=O)cc4C3=O)c(O)c2)cc1O (repeat unit) |
| 1.21 | 53 | – | 3.35 | 36.1 | *c1ccc(-c2ccc(Oc3ccc4c(c3)C3(CC4(C)C)CC(C)(C)c4ccc(Oc5ccc(-c6ccc(N7C(=O)c8ccc(C(c9ccc%10c(c9)C(=O)N(*)C%10=O)(C(F)(F)F)C(F)(F)F)cc8C7=O)cc6)cc5C(F)(F)F)cc43)c(C(F)(F)F)c2)cc1 (repeat unit) |
| 0.25 | 15.6 | – | 0.61 | – | *c1ccc(-c2nnc(-c3ccc(N4C(=O)c5ccc(C(c6ccc7c(c6)C(=O)N(*)C7=O)(C(F)(F)F)C(F)(F)F)cc5C4=O)cc3)o2)cc1 (repeat unit) |
| 0.217 | 10.7 | 38.2 | 0.473 | 2.89 | *c1ccc(C(C)(C)c2cccc(N3C(=O)c4ccc(C(c5ccc6c(c5)C(=O)N(*)C6=O)(C(F)(F)F)C(F)(F)F)cc4C3=O)c2)cc1 (repeat unit) |
| 0.191 | 17.5 | 30.8 | 0.375 | 2.18 | *c1ccc(C(c2ccc(N3C(=O)c4ccc(C(=O)c5ccc6c(c5)C(=O)N(*)C6=O)cc4C3=O)cc2)(C(F)(F)F)C(F)(F)F)cc1 (repeat unit) |
| 14.6 | 271 | – | 14.1 | – | *c1ccc(C2(c3ccc(N4C(=O)c5ccc(C(c6ccc7c(c6)C(=O)N(*)C7=O)(C(F)(F)F)C(F)(F)F)cc5C4=O)cc3)c3cc(C(C)(C)C)ccc3-c3ccc(C(C)(C)C)cc32)cc1 (repeat unit) |
| 1.96 | 58.9 | – | 3.3 | – | *c1ccc(C2(c3ccc(N4C(=O)c5ccc(C(c6ccc7c(c6)C(=O)N(*)C7=O)(C(F)(F)F)C(F)(F)F)cc5C4=O)cc3)c3ccccc3-c3ccccc32)cc1 (repeat unit) |
| 0.85 | 29 | – | 0.73 | 3.36 | *c1ccc(Cc2ccc(N3C(=O)c4cc(Oc5ccccc5)c(-c5cc6c(cc5Oc5ccccc5)C(=O)N(*)C6=O)cc4C3=O)cc2)cc1 (repeat unit) |
| 0.0278 | 1.41 | – | 0.0483 | 0.369 | *c1ccc(Cc2ccc(N3C(=O)c4ccc(-c5ccc6c(c5)C(=O)N(*)C6=O)cc4C3=O)c(C)c2)cc1C (repeat unit) |
| 0.0164 | 0.978 | – | 0.0307 | 0.26 | *c1ccc(Cc2ccc(N3C(=O)c4ccc(-c5ccc6c(c5)C(=O)N(*)C6=O)cc4C3=O)c(Cl)c2)cc1Cl (repeat unit) |
| 0.0054 | 0.315 | – | 0.0103 | 0.0923 | *c1ccc(Cc2ccc(N3C(=O)c4ccc(-c5ccc6c(c5)C(=O)N(*)C6=O)cc4C3=O)cc2Br)c(Br)c1 (repeat unit) |
| 0.0129 | 0.542 | – | 0.0203 | 0.143 | *c1ccc(Cc2ccc(N3C(=O)c4ccc(-c5ccc6c(c5)C(=O)N(*)C6=O)cc4C3=O)cc2F)c(F)c1 (repeat unit) |
| 0.198 | 8.75 | – | 0.406 | 2.51 | *c1ccc(Cc2ccc(N3C(=O)c4ccc(C(c5ccc6c(c5)C(=O)N(*)C6=O)(C(F)(F)F)C(F)(F)F)cc4C3=O)c(C)c2)cc1C (repeat unit) |
| 0.121 | 6.78 | – | 0.269 | 1.81 | *c1ccc(Cc2ccc(N3C(=O)c4ccc(C(c5ccc6c(c5)C(=O)N(*)C6=O)(C(F)(F)F)C(F)(F)F)cc4C3=O)c(Cl)c2)cc1Cl (repeat unit) |
| 0.344 | 15.2 | 44.7 | 0.686 | 3.88 | *c1ccc(Cc2ccc(N3C(=O)c4ccc(C(c5ccc6c(c5)C(=O)N(*)C6=O)(C(F)(F)F)C(F)(F)F)cc4C3=O)cc2)cc1 (repeat unit) |
| 0.064 | 2.75 | 9.4 | 0.105 | 0.6 | *c1ccc(N2C(=O)c3ccc([Si](C)(C)c4ccc5c(c4)C(=O)N(*)C5=O)cc3C2=O)cc1 (repeat unit) |
| 1.51 | 36.6 | – | 3.11 | 17.1 | *c1ccc(Oc2ccc(-c3ccc(-c4ccc(-c5ccc(Oc6ccc(N7C(=O)c8ccc(C(c9ccc%10c(c9)C(=O)N(*)C%10=O)(C(F)(F)F)C(F)(F)F)cc8C7=O)cc6)c(C(F)(F)F)c5)cc4)cc3)cc2C(F)(F)F)cc1 (repeat unit) |
| 1.19 | 33.1 | – | 2.87 | 15.2 | *c1ccc(Oc2ccc(-c3ccc(-c4ccc(Oc5ccc(N6C(=O)c7ccc(C(c8ccc9c(c8)C(=O)N(*)C9=O)(C(F)(F)F)C(F)(F)F)cc7C6=O)cc5)c(C(F)(F)F)c4)cc3)cc2C(F)(F)F)cc1 (repeat unit) |
